Measured values: US11896673B2, “Glucose responsive insulin delivery compositions and methods” (NORTH CAROLINA STATE UNIVERSITY, priority 2016, dated 2024)

Legend:
GLUT1 = target: T1, GLUT1 (Rattus norvegicus, UniProt P11167); test: Binding of free GLUT1 protein and Glu-Insulin in vitro (centrifugal filter); settings: overnight incubation, MWCO=10 kDa filter
T1 construct: His6 (pET-28a vector-encoded) (N); T7 tag (pET-28a vector-encoded, upstream of BamHI site) (N); made in house; host or cells: E. coli Rosetta (DE3) pLysS
T1 sequence (P11167 1-492): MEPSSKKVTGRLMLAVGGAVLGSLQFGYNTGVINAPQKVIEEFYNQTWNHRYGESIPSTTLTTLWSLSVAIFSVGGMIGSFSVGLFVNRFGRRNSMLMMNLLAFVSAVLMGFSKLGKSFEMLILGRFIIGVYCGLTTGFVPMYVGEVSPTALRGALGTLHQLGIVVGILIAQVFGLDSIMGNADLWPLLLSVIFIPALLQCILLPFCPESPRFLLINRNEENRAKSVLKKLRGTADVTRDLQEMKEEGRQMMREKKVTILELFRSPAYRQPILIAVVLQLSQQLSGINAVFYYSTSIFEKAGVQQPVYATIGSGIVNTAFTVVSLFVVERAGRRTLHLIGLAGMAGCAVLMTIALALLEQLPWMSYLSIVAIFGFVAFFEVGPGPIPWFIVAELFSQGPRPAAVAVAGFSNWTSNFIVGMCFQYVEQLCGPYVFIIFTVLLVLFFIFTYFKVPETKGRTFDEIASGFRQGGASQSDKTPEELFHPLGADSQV
Protocol: Glucose modified insulin was mixed with GLUT1 protein at a molar ratio of 1.2:1 for 12 hours at 4° C. Free Glu-insulin were removed by the centrifugal filter device (MWCO=10 kDa). The obtained Glu-Insulin was stored at 4° C. until use. We first examined the specific binding affinity of free GLUT1 proteins and Glu-Insulin in vitro. We incubated the GLUT1 with Glu-Insulin overnight, free Glu-Insulin was removed by centrifugal filter device (MWCO=10 kDa).

[1] = tested on: STZ-induced diabetic mice; test: Blood glucose levels in STZ-induced diabetic mice after treatment; format: in vivo; settings: i.v., 5 mg/kg insulin
Protocol: In Vivo Studies Using STZ-Induced Diabetic Mice. STZ-induced male C57B6 diabetic mice were purchased from Jackson Labs (USA) and used under protocols approved by the Institutional Animal Care and Use Committee at North Carolina State University. For in vivo circulating behavior of insulin-RBC, mRBCs were coupled with FITC after loading with insulin, 3 mice were injected i.v. with autologous insulin−mRBCs. Then ˜3 μL of blood was extracted from the tail vein at different time points and then dispersed in 0.5 mL of PBS with anticoagulants. Flow cytometry measurement was applied to determine the percentages of insulin−mRBCs (positive in FITC) in the blood samples. […] The BG level was measured from tail vein blood samples (approximately 3 μL) of mice using the Clarity GL2Plus glucose meter (Clarity Diagnostics) at different time points. […] Plasma insulin concentrations were determined using the human insulin ELISA kit (Calbiotech, USA). The efficacy of insulin−mRBCs for treatment of hyperglycemia in STZ-induced type 1 diabetic mice (Like, A A, et al. Science 193, 415-417 (1976)) was also assessed. […] The BG levels of treated mice were then monitored over time.

mRBCs [2] = tested on: mRBCs
Protocol: The mRBCs were incubated with Glu-Insulin overnight and imaged using the confocal fluorescence microscope to determine whether Glu-Insulin can bind to mRBCs via the specific glucose-GLUT binding.

[3] = tested on: STZ-induced diabetic mice; test: Intraperitoneal glucose tolerance test (IPGTT) 1.5 h after administration; format: in vivo; settings: IPGTT 1.5 hours after i.v. administration
Protocol: In Vivo Studies Using STZ-Induced Diabetic Mice. STZ-induced male C57B6 diabetic mice were purchased from Jackson Labs (USA) and used under protocols approved by the Institutional Animal Care and Use Committee at North Carolina State University. For in vivo circulating behavior of insulin-RBC, mRBCs were coupled with FITC after loading with insulin, 3 mice were injected i.v. with autologous insulin−mRBCs. Then ˜3 μL of blood was extracted from the tail vein at different time points and then dispersed in 0.5 mL of PBS with anticoagulants. Flow cytometry measurement was applied to determine the percentages of insulin−mRBCs (positive in FITC) in the blood samples. […] The BG level was measured from tail vein blood samples (approximately 3 μL) of mice using the Clarity GL2Plus glucose meter (Clarity Diagnostics) at different time points. […] Plasma insulin concentrations were determined using the human insulin ELISA kit (Calbiotech, USA). […] To quantitate the glucose response to the various insulin formulations (Yu J, et al. Proc. Natl. Acad. Sci. U.S.A. 112, 8260-8265 (2015); Chou DH-C, et al. Proc. Natl. Acad. Sci. U.S.A. 112, 2401-2406 (2015)), the area under the curve was calculated for each group between 90 and 200 min. […] Furthermore, plasma insulin levels of diabetic mice were monitored over time by ELISA after IPGTT (FIG. 8D).

[4] = tested on: STZ-induced type 1 diabetic mice; test: In vivo bioactivity comparison of native insulin and Glu-Insulin; settings: same insulin concentration 5 mg/kg
Source text: Glucose was conjugated to insulin via a bifunctional maleimide linker (FIG. 2). Glu-Insulin was clearly identified by the sodium dodecyl sulfate polyacrylamide gel electrophoresis (SDS-PAGE) and matrix-assisted laser desorption/ionization mass spectrometry (MALDI MS) (FIG. 3A-B). As calculated by MALDI-MS, two glucose molecules are conjugated to each insulin molecule (feed molar ratio of glucose to insulin: 100:1). […] In short, the modification of insulin with glucose has a statistically insignificant impact on bioactivity relative to unmodified insulin.

healthy mice = test: Hypoglycemia study in healthy mice under normoglycemic conditions; settings: mouse, in vivo
Protocol: FIG. 8F is a bar graph showing the quantification of the hypoglycemia index, calculated from the difference between the initial and nadir BG readings divided by the time at which nadir was reached. The error bars are based on the SD of five mice per group. (P values: *P<0.05) Next, the potential for insulin−mRBCs to induce hypoglycemia was studied in healthy mice under normoglycemic conditions (FIG. 8E). […] The corresponding hypoglycemia index was calculated to assess the risk of hypoglycemia (Yu J, et al. Proc. Natl. Acad. Sci. U.S.A. 112, 8260-8265 (2015); Chou DH-C, et al. Proc. Natl. Acad. Sci. U.S.A. 112, 2401-2406 (2015)).

mRBCs [5] = test: Binding/loading of Glu-Insulin to mouse RBCs (confocal, flow cytometry, ELISA); settings: incubated overnight, confocal fluorescence microscopy
Protocol: Preparation of insulin loaded RBCs. Whole blood was collected from the B16 mice or from a human volunteer (The study protocol was approved by the Institutional Review Board at North Carolina State University). RBCs were separated from the whole blood by centrifugation (1000 g, 10 min) and washed thrice with cold PBS (300 mOsm, pH=8.0) to remove the glucose intracellularly. To load the insulin to RBC membrane, Glu-Insulin (0.5 mg/ml) was incubated with […] RBCs (1×10^8) under gentle stirring at 4° C. overnight. RBCs were washed thrice with cold PBS (300 mOsm, pH 8) to remove the unconjugated Glu-Insulin. Bound insulin was determined by ELISA assay.

Substance: Glu-Insulin: human recombinant insulin conjugated to two glucose (glucosamine) molecules via a bifunctional maleimide (Sulfo-SMCC/thiol) linker
- binding of Glu-Insulin to free GLUT1 protein (GLUT1): insulin signals could be detected in supernatant if co-incubated with GLUT1 proteins
- BG level recovered within 24 h [1]: ~500 mg/dL
- BG level within 1 h [1]: < 70 mg/dL
- damage to mRBCs by insulin binding (annexin V) (mRBCs [2]): does not cause significant damage to mRBCs
- BG response after IPGTT [3]: only exhibited a fleeting response
- bioactivity profile relative to native insulin [4]: do not display any significant difference in their bioactivity profiles
- BG levels in healthy mice (healthy mice): significantly decreased BG levels compared to insulin−mRBCs treated mice
- binding of Glu-Insulin to mRBCs (mRBCs [5]): bound to the mRBCs
